Test results taken from article PMC9034232 (RSC Advances, 2021).

Tests used:
[1] = test system: influenza A/H1N1/WSN/33 virus; assay: Anti-IAV activity assay; format: cell-based; conditions: 24 h, read-out: IC50 (anti-IAV activity)
in vitro = conditions: human

| Compound | IC50 [1] [µM] | CC50 (in vitro) [µM] |
| --- | --- | --- |
| Cc1cc(=O)c2c(o1)C[C@H](O)C[C@H]2O [Compound 9, (5R,7R)-5,7-dihydroxy-2-methyl-5,6,7,8-tetrahydro-4H-chromen-4-one] | 16.1 | > 100 |
| Cc1cc(=O)c2c(o1)C[C@@H](O)C[C@H]2O [Compound 11, (5R,7S)-5,7-dihydroxy-2-methyl-5,6,7,8-tetrahydro-4H-chromen-4-one] | 9 | > 100 |
| NC(=O)c1ncn([C@@H]2O[C@H](CO)[C@@H](O)[C@H]2O)n1 [Ribavirin, reference compound] | 21.7 | > 100 |
